Measured values: patent publication US20250114430A1, “MODIFIED PEPTIDOMIMETICS AND METHODS OF USE” (The University of North Carolina at Chapel Hill, priority 2021, published 2025)
No end group written: not given here.

Key:
[1] = system: E. coli lipopolysaccharide (LPS); assay: E. coli LPS acute respiratory distress syndrome (ARDS) model; type: in vivo, mice; settings: 3 mg/kg LPS
Description: FIG. 34 panels B-D show lung injury score (FIG. 34 panel B), % weight loss (FIG. 34 panel C), and % BAL neutrophils (FIG. 34 […]) in relation to FIG. 34 panel A. Lung injury scoring system taken from Aeffner et al. Mouse Models of Acute Respiratory Distress Syndrome: A Review of Analytical Approaches, Pathologic Features, and Common Measurements. 2015 Tox Pathol.
ELD607 reduces inflammation in an acute respiratory distress syndrome (ARDS) model. Mice were intratracheally to 3 mg/kg E. coli lipopolysaccharide (LPS). 0.5 mg/kg ELD607 was instilled intranasally 1 or 6 h later. As a control, 3 mg/kg dexamethasone was given intranasally.

in vitro = in vitro ADME; settings: human, serum
Description: We injected mice intraperitoneally with E. coli LPS, followed by 0.5 mg/kg ELD607 injected intravenously 1 h later.

αSMA = αSMA deposition in primary myofibroblasts from IPF patients; type: cell-based, human; settings: primary myofibroblasts from five IPF patients
Description: Each pair of point represents paired data from 5 different IPF donors.
In vitro Methods: Fibroblasts were exposed to 10 nM TFGβ for 3-7 days as indicated. Then, ELD607 was added overnight. Fibroblasts were then fixed in paraformaldehyde, stained with primary a smooth muscle actin (αSMA) antibody, and imaged by confocal microscopy. Myofibroblasts were exposed to ELD607 without any TGFβ pre-treatment. In some cases, Western blotting was used to probe for αSMA.

P. aeruginosa [2] = assay: P. aeruginosa growth in the presence of peptide; type: cell-based; settings: in vitro
P. aeruginosa [3] = assay: P. aeruginosa infection in WT mice, ELD607 versus comparators; type: in vivo; settings: WT mice infected with P. aeruginosa
From the text: We then infected WT mice with P. aeruginosa and treated with ELD607, the Orai1 small molecule antagonist […], dexamethasone or scrambled ELD607.

[4] = target: T1, human neutrophil elastase (Homo sapiens, UniProt P08246); type: in vitro ADME
T1 sequence (P08246 30-267): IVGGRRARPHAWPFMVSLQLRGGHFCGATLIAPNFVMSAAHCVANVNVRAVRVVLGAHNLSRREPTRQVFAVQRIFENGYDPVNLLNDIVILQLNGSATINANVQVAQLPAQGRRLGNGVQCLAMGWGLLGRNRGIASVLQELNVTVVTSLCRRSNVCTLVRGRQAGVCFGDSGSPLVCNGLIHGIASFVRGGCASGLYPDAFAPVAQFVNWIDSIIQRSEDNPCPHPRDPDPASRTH
Description: Peptides were exposed to NE over time, and the reaction was stopped by addition of sivelestat. HPLC was then performed in order to determine peptide stability. N=3-4 replicates per time point.
HEK293T cells were plated and incubated for 2 hours with Fluo-4 plus or minus ELD peptides, with fluorescent images taken every 30 seconds for 2-6 minutes at excitation/emission wavelengths of 488/530 nm. […] Candidate peptides ELD604, 607, 601, and 100 were tested for resistance against protease degradation, wherein the peptides were incubated with neutrophil elastase, treated with the elastase inhibitor sivelestat at various timepoints to halt ongoing reactions, and then analyzed by HPLC (FIG. 9).
(§1) Endogenous Orai1/store operated Ca^2+ influx have been extensively studied in HEK293T cells, so this cell type was used to understand ELD607-Orai1 interactions. […] Thapsigargin is a SERCA pump inhibitor that prevents uptake of cytosolic Ca^2+ into the endoplasmic reticulum. Thapsigargin is commonly used to stimulate Orai1/store operated Ca^2+ influx. […] Dynamic light scattering (DLS) was used to evaluate binding of ELD607 to peptides of Orai1 extracellular loops. […] Thus, it was concluded that ELD607 interacts with Orai1.

[5] = Lung retention and blood exposure after intratracheal dosing in mice; settings: mouse, in vivo
Description: FIG. 30 panels B and C show % ELD607 recovered in BAL (FIG. 30 panel B) and blood (FIG. 30 panel C).
ELD607 is retained in the lung lumen. ELD607-TAMRA or vehicle (saline) was administered to mice intratracheally (0.5 mM, 1 h). Lungs were isolated, fixed, clarified and imaged using light-sheet fluorescence microscopy. […] We then dosed mice with 10 mg/kg ELD607 and collected BAL and blood. ELD607 levels declined over time in the BAL and plateaued with ˜10% of the initial dose detected after 2 h (FIG. 30, panel B).

NFAT = assay: NFAT-GFP relocation to the nucleus in HEK293T cells after stimulation of SOCE; type: cell-based; settings: thapsigargin
From the text: (§2) To determine whether ELD607 internalized Orai1, total internal reflection fluorescence (TIRF) microscopy was used to measure Orai1 in the plasma membrane. […] However, ELD607 reduced Orai1 plasma membrane expression by ˜50% (FIG. 26, panels A-B). […] We expressed NFAT-GFP in HEK293T cells and evaluated the ability of ELD607 to attenuate NFAT relocation to the nucleus after stimulation of SOCE by confocal microscopy. ELD607 reduced the percentage of NFAT in the nucleus by greater than 50% (FIG. 26, panels C-D).

Orai1 = Orai1 (Homo sapiens, UniProt Q96D31); assay: TIRF microscopy of Orai1 in the plasma membrane; type: cell-based; design: Endogenous Orai1/store operated Ca^2+ influx have been extensively studied in HEK293T cells; endogenous in cells; host or cells: HEK293T; settings: Orai1-YFP, 3 h
From the text: as §2

HEK293T cells [6] = assay: Cytoplasmic Ca^2+ (Fluo-4) in HEK293T cells incubated with ELD peptides; type: cell-based; settings: 2 hours with Fluo-4 plus or minus peptide
HEK293T cells [7] = assay: Store operated Ca^2+ influx in HEK293T cells after incubation of peptide in ARDS BAL; type: cell-based
From the text: ELD607 is active in ARDS patient immune cells. Pulmonary neutrophilic inflammation and increased lung neutrophil elastase levels are common in ARDS patient lungs. We therefore evaluated whether ELD607 remained stable in BAL samples patients with ARDS caused by bacterial pneumonia. […] (FIG. 27, panel A).

P. aeruginosa POA1 = assay: P. aeruginosa infection in Orai1 heterozygous mice and WT littermates; type: in vivo; settings: 10^7 CFU/mouse, 0.5 mg/kg intranasal
From the text: ELD607, but not global Orai1 inhibition or steroids beneficially reduce pulmonary inflammation after P. aeruginosa infection.

[8] = target: T2, Orai1 extracellular peptide 1 (OP1) (Homo sapiens, UniProt Q96D31); assay: Dynamic light scattering binding to Orai1 extracellular loop peptide OP1; settings: DLS, Orai1 amino acids 106-119
T2 construct: corresponding to amino acids 106-119 ([…]
From the text: as §1

Sequence of Orai1 (Q96D31 whole entry): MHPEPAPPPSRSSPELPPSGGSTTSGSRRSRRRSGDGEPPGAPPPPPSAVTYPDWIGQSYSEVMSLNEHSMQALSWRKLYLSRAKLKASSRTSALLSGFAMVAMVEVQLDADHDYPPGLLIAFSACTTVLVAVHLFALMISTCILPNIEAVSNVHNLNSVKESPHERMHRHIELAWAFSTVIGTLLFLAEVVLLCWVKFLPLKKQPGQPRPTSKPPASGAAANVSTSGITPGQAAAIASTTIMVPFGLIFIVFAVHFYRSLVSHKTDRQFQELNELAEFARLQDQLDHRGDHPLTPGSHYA

## VHDIVNMLIRG [ELD607, VHDIVNMLIRG]
[1]; 0.5 mg/kg ELD607 intranasally
  BAL neutrophilia: attenuated BAL neutrophilia
  weight loss: reduced weight loss
[1]; 0.5 mg/kg ELD607 intranasally 1 or 6 h later
  lung damage (lung injury score): significantly reduced lung damage caused by LPS
In vitro
  remaining at 4 h: 100%
αSMA
  αSMA deposition: significantly reduces αSMA deposition
P. aeruginosa [2]
  P. aeruginosa growth: no effect on P. aeruginosa growth
P. aeruginosa [3]
  bacterial infections: significantly reduced
  lung macrophage levels: increased lung macrophage levels
  neutrophilia: significantly reduced
  weight loss: significantly reduced
[4]
  stability against neutrophil elastase: significant increase in stability
  stability relative to a6 after exposure to human neutrophil elastase: four times more stable
[5]
  % of the initial dose detected in BAL: ~10%
  % of the original dose detected in the blood: less than 0.3%
NFAT
  reduction of the percentage of NFAT in the nucleus: greater than 50%
Orai1
  reduction of Orai1 plasma membrane expression: ~50%
HEK293T cells [6]
  cytoplasmic calcium levels as compared to a control scrambled peptide: reduced cytoplasmic calcium levels
HEK293T cells [7]
  inhibition of store operated Ca^2+ influx after incubation in ARDS BAL: did not prevent ELD607 from inhibiting store operated Ca^2+ influx
P. aeruginosa POA1
  leukocyte levels in WT littermate controls: normalized leukocytes similar to naïve mice
[8]
  interaction with OP1 (Z-average increase): significant interactions
